We go through one compound from patent US20190070128A1, “USE OF CANNABIDIVARIN IN THE TREATMENT OF AUTISM SPECTRUM DISORDER, ASSOCIATED DISORDERS AND SCHIZOPHRENIA” (GW Research Limited, priority 2016, published 2019).

Assay [1] concerns PCP-treated rats. The assay can be described thus: novel object recognition test in sub-chronic PCP treated rats. The class given is in vivo, rat. The settings on record: PCP rats; CBDV 2, 10 or 20 mg/kg i.p., risperidone 0.1 mg/kg i.p., 60 min prior to testing. On the procedure: (§1) Female hooded-Lister rats were used for this experiment. Rats were housed in groups of 5 under standard laboratory conditions under a 12 hr light: dark cycle, lights on at 0700 hr. Testing was carried out in the light phase.
(§2) Rats were randomly assigned to two treatment groups and treated with vehicle, n=20 (distilled water, i.p.) or Phencyclidine hydrochloride (PCP), n=100 (2 mg/kg, i.p. twice daily for 7-days). PCP was dissolved in distilled water. This was followed by a 7-day wash out period before the rats were tested following acute treatment with CBDV, risperidone or vehicle.
(§3) Risperidone (0.1 mg/kg) was dissolved in a minimum volume of acetic acid, made up to volume with distilled water and pH adjusted to 6 with 0.1M NaOH and administered via the i.p. route in a volume of 1 ml/kg, 60 min prior to testing.
(§4) CBDV at 2, 10 or 20 mg/kg was dissolved in 2:1:17 (Ethanol:Cremofor:Saline 0.9%) and administered via the i.p. route in a volume of 5 ml/kg, 60 min prior to testing.
Rats were allowed to habituate to the empty test box and the behavioural test room environment for 1 h on day 1. Prior to behavioural testing on day 2 rats are given a further 3 min habituation.
Following the 3 min habituation period, the rats are given two 3 min trials (T1 and T2) which are separated by a 1 min inter-trial interval in the home cage during which the objects are changed. Behaviour in all trials was recorded on video for subsequent blind scoring.
In this trial, the animals are allowed to explore two identical objects (A1 and A2) for 3 min.
In this trial, the animals explore a familiar object (A) from T1 and a novel object (B) for 3 min. The familiar object presented during T2 is a duplicate of the object presented in T1 in order to avoid any olfactory trails.
The object exploration is defined by animals licking, sniffing or touching the object with the forepaws whilst sniffing, but not leaning against, turning around, standing or sitting on the object. The exploration time (s) of each object (A, B, familiar and novel) in each trial are recorded using two stopwatches and the following factors are calculated: • Total exploration time of both objects in the acquisition trial (s). • Total exploration time of both objects in the retention trial (s). • Habituation of exploratory activity includes the exploration time, as measured by the number of lines crossed, for both the trials. • Discrimination index (DI), which is calculated as shown below: […]

For assay [2], the system named is PCP-treated rats. Description: social interaction test in sub-chronic PCP treated rats. The class given is in vivo, rat. Here is the method: as §1, §2, §3, §4
The social interaction test is performed in an open-field comprising a square box made of Plexiglas (52×52×31 cm) placed 27 cm above the floor on a moveable trolley. The floor of the box is white with black gridlines forming 9 identical squares on it. All other walls are black. A video camera connected to a video recorder and monitor is positioned above the box. The object used for the test consists of a heavy structure made of metal that cannot be displaced by the animals.
The rats were habituated to the test environment and arena prior to the test day. Habituation consists of placing all rats from one cage together in the empty test arena for one hour for three days including the day before the test day.
Pairs of rats, weight matched (15-20 g) and unfamiliar to each other, receiving either no treatment (n=70 “conspecific” rats) or different treatments (PCP and Vehicle; n=10 “tested” rats or PCP+Drug; n=50 “tested” rats) were placed in the test arena together for 10 min and behaviour assessed as described below.
An inanimate object such as an unopened drinks can is also placed in the centre of the arena to measure any differences in interaction of the test animal with an unfamiliar animal as opposed to an unfamiliar object. After each 10 minute trial, the object and arena are cleaned with 10% alcohol in an attempt to remove traces of any olfactory cues. All testing is carried out under standard room illumination levels (70 cd/m2).
Behaviour in both trials was recorded on video for subsequent blind scoring. A behavioural scoring software program (Hindsight, Scientific programming services) is used to score the following parameters: • Investigative sniffing behaviour: sniffing the conspecific's snout or parts of the body including the anogenital region; • Following: rat moves after the conspecific i.e. a vehicle treated rat of the same species, around the arena; • Avoidances: actively turning away when approached by the conspecific animal; • Investigation of object: exploration of object placed in centre of the arena; and • Locomotor activity is recorded by counting the total number of sectors (i.e. lines) crossed by the test rat.

The test system of assay [3] is PCP-treated rats. To be noted: rat, in vivo; cited from earlier work.

As to `Cc1nc2n(c(=O)c1CCN1CCC(c3noc4cc(F)ccc34)CC1)CCCC2` [risperidone, reference compound], in the assay with PCP-treated rats [1], the “preference between two identical objects, Trial 1 (acquisition)” value is reported as “no real preference”. Also, the “PCP effects on social interaction (sniffing, following, avoiding)” value with PCP-treated rats [2] is “reverse these effects in a statistically significant manner”. Moreover, the “time spent following the other rat” value in the assay on PCP-treated rats [2] (risperidone 0.1 mg/kg, time increased over PCP alone group) was “not seen to be significant”. The “PCP-induced deficit in the novel object recognition test” value with PCP-treated rats [3] was “attenuate”.
